In patent US20260294946A1, “METHOD TO REDUCE FEED CONVERSION RATIO IN A FARMED ANIMAL” (Inbiose N.V., priority 2023, published 2026):

Experiment: Trial in calves: health and safety observation (adverse effects, mortality, diarrhea)
Type: in vivo, Holstein Friesian calves
Conditions: after 12 weeks
Excerpt: Holstein Friesian calves (2- to 3-week-old, 95% male) were transported from different farms to the experimental facility of Denkavit (Voorthuizen, The Netherlands) where the animals were reared. The calves were randomly and gender-equally divided in four groups based on experimental calf milk replacer (CMR): group A (placebo—standard CMR powder of the farm), group B (standard CMR powder supplemented with 0.005% dry wt. 2′FL), group C (standard CMR powder supplemented with 0.025% dry wt. 3′SL and 0.015% w/w 6′SL) and group D (standard CMR powder supplemented with 0.005% dry wt. 2′FL, 0.025% dry wt. 3′SL and 0.015% dry wt. 6′SL). The calf milk replacer was administered as a liquid to the calves (water was added to the CMR powder to obtain 150 grams CMR powder per liter liquid CMR). Each group involved 100 calves, assigned into four rows (25 calves per row) of two compartment blocks. […]
Calves were followed up by the farm staff since arrival until 12 weeks. Fecal consistency in scale 1-4 (Larson et al., 1977, J. Dairy Science, 60(6): p. 989-991) was recorded daily for the first ten days since arrival. […] Disease incidences and medicinal usage based on individual treatments were recorded to compare between treatment groups. […] Live weight of the animals was monitored at arrival (d1), two weeks (W2), six weeks (W6), ten weeks (W10) and 12 weeks (W12) since arrival. […]

2′-fucosyllactose [2′FL]
incidence of diarrhea: 0%
